What follows are compounds tested against T1, telomerase in nuclear extracts from HeLa cells (Homo sapiens, UniProt O14746) (assay: Telomerase test: activity of telomerase in nuclear extracts from HeLa cells (method of Morin)). Settings: concentration of inhibitor which inhibits the telomerase activity by 50%; HeLa nuclear extract, 120 minutes at 30° C., Phospho-Imager quantification.
T1 construct: The activity of telomerase in nuclear extracts from HeLa cells; endogenous in cells; host or cells: HeLa-S3 nuclear extract (ATCC CCL-2.2), prepared according to Dignam
Assay type: biochemical
Protocol: The inhibiting effect of the carboxylic acid amides of general formula I on telomerase was investigated as follows: […]
1. Preparation of Nuclear Extracts from HeLa Cells:
Nuclear extracts were prepared according to Dignam (Dignam et al. in Nucleic Acids Res. 11, 1475-1489 (1983)). All the steps were carried out at 4° C., all the equipment and solutions were pre-cooled to 4° C. At least 1×10^9 HeLa-S3 cells growing in suspension culture (ATCC catalogue number CCL-2.2) were harvested by centrifuging for 5 minutes at 1000× g and washed once with PBS buffer ([…]; 2.7 mM KCl; 8.1 mM Na2HPO4; 1.5 mM KH2PO4). After the cell volume had been determined, the cells were suspended in 5 times the volume of hypotonic buffer (10 mM HEPES/KOH, pH 7.8; 10 mM KCl; 1.5 mM MgCl2) and then left for 10 minutes at 4° C. After centrifuging for 5 minutes at 1000× g the cell pellet was suspended in twice the volume of hypotonic buffer in the presence of 1 mM DTE and 1 mM PMSF and broken up with a Dounce homogeniser. The homogenised material was made isotonic with 0.1 volume of 10-fold saline buffer (300 mM HEPES/KOH, pH 7.8; 1.4 M KCl; 30 mM MgCl2). The cell nuclei were separated from the ingredients of the cytoplasm by centrifuging and then suspended in twice the volume of nuclear extraction buffer (20 mM HEPES/KOH, pH 7.9; 420 mM KCl; 1.5 mM MgCl2; 0.2 mM EDTA; 0.5 mM DTE; 25% glycerol). The nuclei were broken up using a Dounce homogeniser and incubated for 30 minutes at 4° C. with gentle stirring. Any insoluble ingredients were removed by centrifuging for 30 minutes at 10.000 rpm (SS-34 Rotor). Then the nuclear extract was dialysed for 4-5 hours against AM-100 buffer (20 mM tris/HCl, pH 7.9; 100 mM KCl; 0.1 mM EDTA; 0.5 mM DTE; 20% glycerol). The nuclear extracts obtained were frozen in liquid nitrogen and stored at −80° C.
The activity of telomerase in nuclear extracts from HeLa cells was determined using the method described by Morin (Morin in Cell 59, 521-529 (1989)). […] If the inhibition constant of potential telomerase inhibitors was to be determined, these were also added to the telomerase reaction in a concentration range of from 1 nM to 100 μM.
The reaction was then stopped by the addition of 50 μl of RNase stop buffer (10 mM tris/HCL, pH 8.0; 20 mM EDTA; 0.1 mg/ml of RNase A 100 U/ml of RNase T1; 1000 cpm of an α-^32P-dGTP labelled, 430 bp DNA fragment) and incubation was continued for a further 15 minutes at 37° C. Proteins present in the reaction mixture were cleaved by the addition of 50 μl of proteinase K buffer (10 mM tris/HCL, pH 8.0; 0.5% SDS; 0.3 mg/ml of proteinase K) and subsequent incubation for 15 min at 37° C. The DNA was purified by extracting twice with phenol-chloroform and precipitated by adding 2.4 M ammonium acetate; 3 μg tRNA and 750 μl ethanol. Then the precipitated DNA was washed with 500 μl of 70% ethanol, dried at ambient temperature, taken up in 4 μl of formamide probe buffer (80% (V/V) formamide; 50 mM of tris-borate, pH 8.3; 1 mM EDTA; 0.1 (w/v) of xylene cyanol; 0.1% (w/v) bromophenol blue) and separated by electrophoresis on a sequence gel (8% polyacrylamide, 7 M urea, 1× TBE buffer). The DNA synthesised by telomerase in the presence or absence of potential inhibitors was identified and quantified by Phospho-Imager Analysis (Molecular Dynamics) and in this way the concentration of inhibitor which inhibits the telomerase activity by 50% (IC50) was determined.

T1 sequence (O14746 whole entry): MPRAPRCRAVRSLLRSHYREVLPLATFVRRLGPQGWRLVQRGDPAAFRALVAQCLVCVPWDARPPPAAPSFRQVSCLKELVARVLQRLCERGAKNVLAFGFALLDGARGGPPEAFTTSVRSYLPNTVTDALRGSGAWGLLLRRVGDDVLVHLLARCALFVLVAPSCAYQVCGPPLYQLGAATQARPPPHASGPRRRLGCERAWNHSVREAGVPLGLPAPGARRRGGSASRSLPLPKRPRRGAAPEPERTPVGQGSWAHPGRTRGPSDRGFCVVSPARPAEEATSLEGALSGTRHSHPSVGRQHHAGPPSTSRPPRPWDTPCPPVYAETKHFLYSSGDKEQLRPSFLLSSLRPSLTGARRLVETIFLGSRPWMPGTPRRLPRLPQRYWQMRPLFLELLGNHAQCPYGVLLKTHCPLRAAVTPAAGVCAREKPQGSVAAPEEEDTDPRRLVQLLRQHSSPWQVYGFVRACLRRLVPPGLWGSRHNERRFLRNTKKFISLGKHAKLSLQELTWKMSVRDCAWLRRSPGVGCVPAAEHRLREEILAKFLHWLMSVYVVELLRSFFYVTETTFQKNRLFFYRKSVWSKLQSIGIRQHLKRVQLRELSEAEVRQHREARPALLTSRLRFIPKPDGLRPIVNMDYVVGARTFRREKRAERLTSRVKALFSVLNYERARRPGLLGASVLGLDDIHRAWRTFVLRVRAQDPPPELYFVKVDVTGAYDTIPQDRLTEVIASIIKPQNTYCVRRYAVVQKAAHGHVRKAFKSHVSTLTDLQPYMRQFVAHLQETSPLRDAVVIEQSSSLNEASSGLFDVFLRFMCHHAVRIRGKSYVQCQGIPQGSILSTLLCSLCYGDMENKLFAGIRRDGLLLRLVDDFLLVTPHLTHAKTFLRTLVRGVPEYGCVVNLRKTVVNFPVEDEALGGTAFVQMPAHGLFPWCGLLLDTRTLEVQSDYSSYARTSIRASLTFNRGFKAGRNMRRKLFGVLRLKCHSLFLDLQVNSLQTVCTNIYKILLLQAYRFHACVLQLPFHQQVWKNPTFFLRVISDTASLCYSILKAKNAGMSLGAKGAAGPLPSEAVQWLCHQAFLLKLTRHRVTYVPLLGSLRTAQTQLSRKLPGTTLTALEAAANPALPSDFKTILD
T1 sequence (O60832 whole entry partner): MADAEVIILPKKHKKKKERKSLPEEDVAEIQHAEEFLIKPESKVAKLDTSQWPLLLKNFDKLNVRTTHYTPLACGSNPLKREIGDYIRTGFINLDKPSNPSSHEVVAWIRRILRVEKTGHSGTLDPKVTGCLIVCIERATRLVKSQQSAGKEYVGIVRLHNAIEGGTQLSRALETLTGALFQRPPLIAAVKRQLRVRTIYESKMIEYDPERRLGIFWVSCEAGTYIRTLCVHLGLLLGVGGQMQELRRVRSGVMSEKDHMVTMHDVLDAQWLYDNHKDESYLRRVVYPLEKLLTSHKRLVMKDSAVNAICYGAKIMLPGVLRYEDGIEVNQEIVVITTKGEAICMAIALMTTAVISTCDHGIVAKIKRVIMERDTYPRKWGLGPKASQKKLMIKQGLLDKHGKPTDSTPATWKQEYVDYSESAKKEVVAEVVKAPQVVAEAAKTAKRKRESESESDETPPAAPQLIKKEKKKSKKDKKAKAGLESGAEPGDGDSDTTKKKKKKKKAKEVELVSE
T1 sequence (Q9NPE3 whole entry partner): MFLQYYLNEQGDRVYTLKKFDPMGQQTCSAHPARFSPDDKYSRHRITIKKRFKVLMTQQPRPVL
T1 sequence (Q9NX24 whole entry partner): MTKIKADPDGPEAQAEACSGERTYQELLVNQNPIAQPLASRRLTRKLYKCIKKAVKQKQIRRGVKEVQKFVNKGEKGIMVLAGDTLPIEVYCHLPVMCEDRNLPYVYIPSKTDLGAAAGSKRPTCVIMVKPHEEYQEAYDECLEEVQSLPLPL
T1 sequence (Q9NY12 whole entry partner): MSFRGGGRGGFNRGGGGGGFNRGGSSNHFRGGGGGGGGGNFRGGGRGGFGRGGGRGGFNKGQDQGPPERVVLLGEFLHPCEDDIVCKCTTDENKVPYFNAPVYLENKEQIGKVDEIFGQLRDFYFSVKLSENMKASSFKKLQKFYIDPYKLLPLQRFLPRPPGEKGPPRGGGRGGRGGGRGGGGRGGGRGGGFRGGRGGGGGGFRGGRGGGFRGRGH
T1 sequence (Q9BUR4 whole entry partner): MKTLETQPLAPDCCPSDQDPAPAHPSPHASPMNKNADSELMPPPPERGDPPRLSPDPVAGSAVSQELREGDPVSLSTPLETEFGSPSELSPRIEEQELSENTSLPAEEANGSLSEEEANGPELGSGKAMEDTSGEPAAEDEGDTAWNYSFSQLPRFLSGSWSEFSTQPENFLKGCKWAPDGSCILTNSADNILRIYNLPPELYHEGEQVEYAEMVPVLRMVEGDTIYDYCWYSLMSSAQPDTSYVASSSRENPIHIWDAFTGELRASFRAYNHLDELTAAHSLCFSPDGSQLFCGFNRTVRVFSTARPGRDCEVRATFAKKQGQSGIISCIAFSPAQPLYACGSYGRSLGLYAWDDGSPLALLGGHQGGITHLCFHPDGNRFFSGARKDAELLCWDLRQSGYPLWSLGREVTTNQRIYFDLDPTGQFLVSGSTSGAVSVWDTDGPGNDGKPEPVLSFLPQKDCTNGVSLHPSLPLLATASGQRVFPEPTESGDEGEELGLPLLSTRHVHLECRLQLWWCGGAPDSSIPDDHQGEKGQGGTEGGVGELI

| Compound | IC50 [nM] |
| --- | --- |
| C/C(=C\C(=O)Nc1ccccc1C(=O)O)c1ccc(Cl)c(Cl)c1 [Example 10, trans-3-(3,4-dichlorophenyl)-but-2-enoic acid-N-(2-carboxy-phenyl)-amide] | 5000 |
| COc1cc(C(=O)O)c(NC(=O)/C=C(\C)c2ccc(Cl)c(Cl)c2)cc1C [Example 17, trans-3-(3,4-dichlorophenyl)-but-2-enoic acid-N-(2-carboxy-4-methoxy-5-methyl-phenyl)-amide] | 1000 |
| C/C(=C\C(=O)Nc1ccccc1C(=O)O)c1ccc2ccccc2c1 [Example 18, trans-3-(naphth-2-yl)-but-2-enoic acid-N-(2-carboxy-phenyl)-amide] | 40 |
| COc1cc(NC(=O)/C=C(\C)c2ccc3ccccc3c2)c(C(=O)O)cc1OC [Example 28, trans-3-(naphth-2-yl)-but-2-enoic acid-N-(2-carboxy-4,5-dimethoxy-phenyl)-amide] | 35 |
| C/C(=C\C(=O)Nc1cc(Cl)ccc1C(=O)O)c1ccc2ccccc2c1 [Example 29, trans-3-(naphth-2-yl)-but-2-enoic acid-N-(2-carboxy-5-chloro-phenyl)-amide] | 550 |
| C/C(=C\C(=O)Nc1ccc(F)cc1C(=O)O)c1ccc2ccccc2c1 [Example 31, trans-3-(naphth-2-yl)-but-2-enoic acid-N-(2-carboxy-4-fluoro-phenyl)-amide] | 100 |
